One may read the EC50 as the midpoint of the concentration-response curve.

Molecules are shown by their SMILES.

T1 sequence (P13569 with tags, fused parts or gaps DEL508-508): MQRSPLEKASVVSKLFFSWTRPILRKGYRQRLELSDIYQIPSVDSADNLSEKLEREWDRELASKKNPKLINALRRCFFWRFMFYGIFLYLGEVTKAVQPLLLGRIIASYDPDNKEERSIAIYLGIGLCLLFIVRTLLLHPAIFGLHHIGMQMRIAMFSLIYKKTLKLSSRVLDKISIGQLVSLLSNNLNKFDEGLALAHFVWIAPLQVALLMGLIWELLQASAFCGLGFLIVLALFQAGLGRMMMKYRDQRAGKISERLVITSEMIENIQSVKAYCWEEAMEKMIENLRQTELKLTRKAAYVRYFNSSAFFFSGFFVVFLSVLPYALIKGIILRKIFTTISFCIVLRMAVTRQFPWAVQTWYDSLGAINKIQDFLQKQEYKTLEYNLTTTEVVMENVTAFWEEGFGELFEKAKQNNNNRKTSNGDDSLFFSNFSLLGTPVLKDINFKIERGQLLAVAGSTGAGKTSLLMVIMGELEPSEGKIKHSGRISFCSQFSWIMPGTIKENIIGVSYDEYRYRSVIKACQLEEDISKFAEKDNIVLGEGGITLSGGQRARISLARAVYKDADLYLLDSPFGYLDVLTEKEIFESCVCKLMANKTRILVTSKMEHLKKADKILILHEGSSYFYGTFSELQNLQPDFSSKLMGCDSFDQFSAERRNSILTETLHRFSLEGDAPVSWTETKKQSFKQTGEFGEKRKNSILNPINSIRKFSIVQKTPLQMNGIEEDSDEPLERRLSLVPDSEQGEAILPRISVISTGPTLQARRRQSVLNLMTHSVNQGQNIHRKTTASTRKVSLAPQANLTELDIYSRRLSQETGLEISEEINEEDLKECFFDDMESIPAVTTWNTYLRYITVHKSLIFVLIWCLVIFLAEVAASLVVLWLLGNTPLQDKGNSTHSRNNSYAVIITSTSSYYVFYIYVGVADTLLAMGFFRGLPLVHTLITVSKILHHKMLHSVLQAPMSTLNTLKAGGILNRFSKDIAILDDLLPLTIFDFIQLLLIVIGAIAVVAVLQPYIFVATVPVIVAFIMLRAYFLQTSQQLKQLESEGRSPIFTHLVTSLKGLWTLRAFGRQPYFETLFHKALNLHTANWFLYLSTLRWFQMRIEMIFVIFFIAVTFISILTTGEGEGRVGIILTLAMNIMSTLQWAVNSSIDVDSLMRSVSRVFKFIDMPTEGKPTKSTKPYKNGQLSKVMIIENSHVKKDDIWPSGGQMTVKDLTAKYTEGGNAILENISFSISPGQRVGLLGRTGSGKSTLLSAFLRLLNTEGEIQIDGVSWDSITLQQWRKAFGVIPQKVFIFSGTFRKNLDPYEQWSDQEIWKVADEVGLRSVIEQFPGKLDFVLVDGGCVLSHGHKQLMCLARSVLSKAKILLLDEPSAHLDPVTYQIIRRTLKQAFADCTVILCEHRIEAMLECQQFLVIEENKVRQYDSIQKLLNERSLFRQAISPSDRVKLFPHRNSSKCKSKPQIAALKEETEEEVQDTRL

This test addresses T1, human ΔF508-CFTR (Homo sapiens, UniProt P13569, DEL508-508).
T1 construct: expressed in transfected cells
The experiment in a line: CFTR-YFP High Throughput Assay (YFP halide flux in FRT cells). It is filed as cell-based. The note with it: FRT cells expressing human ΔF508-CFTR and YFP; forskolin stimulated. As to the method:
Assays for Detecting and Measuring the Effect of Compounds on dF508-CFTR Channels CFRT-YFP High Throughput Assay:
The following protocol is designed to selectively screen small molecule compounds for F508del CFTR corrector activities in the HTS YFP flux assay. In this protocol, the cells are incubated with testing compounds for 24 hours, washed with PBS, stimulated with forskolin and a standard potentiator, and read on a 384-well HTS plate reader, such as the Hamamatsu FDDD-6000.
YFP fluorescence intensity is acquired at high speed before and after iodide buffer is injected to the assay cells. Iodide enters the cells via active CFTR channels in the plasma membrane, and quenches the YFP fluorescence. The rate of fluorescence quenching is proportionally related to the total CFTR activities in the cell membrane. dF508-CFTR corrector accelerates YFP quenching by increasing the number of CFTR molecules in the testing cell plasma membrane.
This method was initially developed for bench top plate readers (Galietta et al., 2001), and was adapted to the HTS format (Sui et al. Assay Drug Dev. Technol. 2010).
Fisher Rat Thyroid (FRT) cells stably expressing both human AF508-CFTR and a halide-sensitive yellow fluorescent protein (YFP—H148Q/1152L 25, 22) (Galietta et al., Am. J. Physiol Cell Physiol 281(5), C1734, 2001) were cultured on plastic surface in Coon's modified Ham's F12 medium supplemented with FBS 10%, L-glutamine 2 mM, penicillin 100 U/mL, and streptomycin 100 μg/mL. G418 (0.75-1.0 mg/mL) and zeocin (3.2 ug/mL) were used for selection of FRT cells expressing ΔF508-CFTR and YFP. For primary screening, FRT cells were plated into 384-well black wall, transparent bottom microtiter plates (Costar; Corning Inc.) at a cell density of 20,000-40,000 per well. Test compound was applied to the cells at varying concentrations ranging from […] in either a 2-fold or 3-fold dilution series. Cells were incubated in a cell culture incubator at 37° C. with 5% CO2 for 24-26 h. Assay plates were washed with DPBS media (Thermo, cat# SH30028.02) to remove unbound cells and compound. Stimulation media (25 μL) containing 20 μM Forskolin & 30 μM P3 [6-(Ethyl-phenyl-sulfonyl)-4-oxo-1,4-dihydro-quinoline-3-carboxylic acid 2-methoxy-benzylamide] in Hams F-12 coon's modified media was added to the plate wells and incubated at room temperature for 60-120 min. 25 μL of HEPES-PBS-I buffer (10 mM HEPES, 1 mM MgCl2, 3 mM KCl, 1 mM CaCl2, 150 mM NaI) was then added and fluorescence quench curves (Excitation 500 nm/Emission 540 nm; exposure 136 ms) were immediately recorded on an FDSS-6000 plate reader (Hamamatsu). Quench rates were derived from least squares fitting of the data as described by Sui et al., (2010).
The following protocol is designed to selectively screen small molecule compounds for F508del CFTR potentiator activities in the HTS YFP flux assay. In this protocol, the cells are incubated at 27 C for 24 hours with homogeneously boosted dF508-CFTR expression in the cell membrane by the low temperature, washed with PBS, stimulated with forskolin, and read on a 384-well HTS plate reader, such as the Hamamatsu FDDD-6000.
YFP fluorescence intensity is acquired at high speed before and after iodide buffer is injected to the assay cells. Iodide enters the cells via active CFTR channels in the plasma membrane, and quenches the YFP fluorescence. The rate of fluorescence quenching is proportionally related to the total CFTR activities in the cell membrane. dF508del-CFTR potentiators accelerate YFP quenching by increasing CFTR activities in the testing cell plasma membrane.
Fisher Rat Thyroid (FRT) cells stably expressing both human ΔF508-CFTR and a halide-sensitive yellow fluorescent protein (YFP-H148Q/I152L 25, 22) (Galietta et al., Am. J. Physiol Cell Physiol 281(5), C1734, 2001) were cultured on plastic surface in Coon's modified Ham's F12 medium supplemented with FBS 10%, L-glutamine 2 mM, penicillin 100 U/mL, and streptomycin 100 μg/mL. […]
For `CCc1ccc(N(CC)C(=O)Cn2nc(Cc3cccnc3)c3ccc(OC)cc3c2=O)cc1` [Example 35, N-ethyl-N-(4-ethylphenyl)-2-(7-methoxy-1-oxo-4-(pyridin-3-ylmethyl)phthalazin-2(1H)-yl)acetamide], the EC50 was less than 10 µM.

Take `CCc1ccc(N(CC)C(=O)Cn2nc(Cc3cccnc3)c3cc(OC)ccc3c2=O)cc1` [Example 36, N-ethyl-N-(4-ethylphenyl)-2-(6-methoxy-1-oxo-4-(pyridin-3-ylmethyl)phthalazin-2(1H)-yl)acetamide]: the EC50 is less than 10 µM.

`CCc1ccc(N(CC)C(=O)Cn2nc(Cc3cccnc3)c3cccc(F)c3c2=O)cc1` [Example 37, N-ethyl-N-(4-ethylphenyl)-2-(8-fluoro-1-oxo-4-(pyridin-3-ylmethyl)phthalazin-2(1H)-yl)acetamide]: the EC50 is less than 10 µM.

As for `CCc1ccc(N(CC)C(=O)Cn2nc(Cc3cccnc3)c3cc(Cl)c(Cl)cc3c2=O)cc1` [Example 38, 2-(6,7-dichloro-1-oxo-4-(pyridin-3-ylmethyl)phthalazin-2(1H)-yl)-N-ethyl-N-(4-ethylphenyl)acetamide], the EC50 was more than 20 µM.

`CCc1ccc(N(CC)C(=O)Cn2nc(Cc3cccnc3)c3ccc(Cl)cc3c2=O)cc1` [Example 39, 2-(7-chloro-1-oxo-4-(pyridin-3-ylmethyl)phthalazin-2(1H)-yl)-N-ethyl-N-(4-ethylphenyl)acetamide]: the EC50 was less than 10 µM.

On to `CCc1ccc(N(CC)C(=O)Cn2nc(Cc3cccnc3)c3cc(Cl)ccc3c2=O)cc1` [Example 40, 2-(6-chloro-1-oxo-4-(pyridin-3-ylmethyl)phthalazin-2(1H)-yl)-N-ethyl-N-(4-ethylphenyl)acetamide], for which the 50% effective concentration (EC50) is less than 10 µM.

`CCc1ccc(N(CC)C(=O)Cn2nc(Cc3cccnc3)c3ccncc3c2=O)cc1` [Example 41, N-ethyl-N-(4-ethylphenyl)-2-(4-oxo-1-(pyridin-3-ylmethyl)pyrido[3,4-d]pyridazin-3(4H)-yl)acetamide]: the EC50 is more than 20 µM.

In the case of `CCc1ccc(N(CC)C(=O)Cn2nc(Cc3cccnc3)c3cnccc3c2=O)cc1` [Example 42, N-ethyl-N-(4-ethylphenyl)-2-(1-oxo-4-(pyridin-3-ylmethyl)pyrido[3,4-d]pyridazin-2(1H)-yl)acetamide], the EC50 was more than 20 µM.

In the case of `CCc1ccc(N(CC)C(=O)Cn2nc(Cc3cccnc3)c3ncccc3c2=O)cc1` [Example 43, N-ethyl-N-(4-ethylphenyl)-2-(5-oxo-8-(pyridin-3-ylmethyl)pyrido[2,3-d]pyridazin-6(5H)-yl)acetamide], the EC50 fell in the range of 10 to 20 µM.

As to `CCN(C(=O)Cn1nc(Cc2cccnc2)c2cc(OC)c(OC)cc2c1=O)c1ccc2c(c1)OC(F)(F)O2` [Example 44], the EC50 was less than 10 µM.

In the case of `CCN(C(=O)Cn1nc(Cc2cccnc2)c2ccc(C)cc2c1=O)c1ccc2c(c1)OC(F)(F)O2` [Example 45, N-(2,2-difluorobenzo[d][1,3]dioxol-5-yl)-N-ethyl-2-(7-methyl-1-oxo-4-(pyridin-3-ylmethyl)phthalazin-2(1H)-yl)acetamide], the EC50 is less than 10 µM.

Take `CCN(C(=O)Cn1nc(Cc2cccnc2)c2cc(C)ccc2c1=O)c1ccc2c(c1)OC(F)(F)O2` [Example 46, N-(2,2-difluorobenzo[d][1,3]dioxol-5-yl)-N-ethyl-2-(6-methyl-1-oxo-4-(pyridin-3-ylmethyl)phthalazin-2(1H)-yl)acetamide]: the EC50 is less than 10 µM.

As to `CCN(C(=O)Cn1nc(Cc2cccnc2)c2cccc(C)c2c1=O)c1ccc2c(c1)OC(F)(F)O2` [Example 47, N-(2,2-difluorobenzo[d][1,3]dioxol-5-yl)-N-ethyl-2-(8-methyl-1-oxo-4-(pyridin-3-ylmethyl)phthalazin-2(1H)-yl)acetamide], the EC50 is less than 10 µM.

Turning to `CCN(C(=O)Cn1nc(Cc2cccnc2)c2c(C)cccc2c1=O)c1ccc2c(c1)OC(F)(F)O2` [Example 48, N-(2,2-difluorobenzo[d][1,3]dioxol-5-yl)-N-ethyl-2-(5-methyl-1-oxo-4-(pyridin-3-ylmethyl)phthalazin-2(1H)-yl)acetamide], the EC50 was less than 10 µM.

The values above are taken from US9790215B2 (FLATLEY DISCOVERY LAB, LLC, priority 2013, dated 2017).
